According to PubChem BioAssay (NCI):
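Each compound was tested at five concentrations against cells in 96-well plates for 48 hours. Abbreviation: GI50, concentration required for 50% inhibition of growth. The concentration for full growth arrest is given as TGI.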

How the values were obtained:
Experiment in all cases: DTP human tumour cell line panel, 48 h
786-0 renal = system: 786-0 renal
TK-10 renal = system: TK-10 renal
A549 NSCLC = system: A549 NSCLC
HOP-92 NSCLC = system: HOP-92 NSCLC
SF-268 CNS = system: SF-268 CNS
K-562 leukemia = system: K-562 leukemia
NCI-H226 lung = system: NCI-H226 lung
SK-OV-3 ovarian = system: SK-OV-3 ovarian
UACC-257 melanoma = system: UACC-257 melanoma
NCI/ADR-RES ovarian = system: NCI/ADR-RES ovarian

| Structure (SMILES) | GI50 (786-0 renal) [µM] | TGI (786-0 renal) [µM] | GI50 (TK-10 renal) [µM] | TGI (TK-10 renal) [µM] | GI50 (A549 NSCLC) [µM] | TGI (A549 NSCLC) [µM] | GI50 (HOP-92 NSCLC) [µM] | TGI (HOP-92 NSCLC) [µM] | GI50 (SF-268 CNS) [µM] | TGI (SF-268 CNS) [µM] | GI50 (K-562 leukemia) [µM] | GI50 (NCI-H226 lung) [µM] | TGI (NCI-H226 lung) [µM] | GI50 (SK-OV-3 ovarian) [µM] | TGI (SK-OV-3 ovarian) [µM] | GI50 (UACC-257 melanoma) [µM] | TGI (UACC-257 melanoma) [µM] | GI50 (NCI/ADR-RES ovarian) [µM] | TGI (NCI/ADR-RES ovarian) [µM] | TGI (K-562 leukemia) [µM] |
| --- | --- | --- | --- | --- | --- | --- | --- | --- | --- | --- | --- | --- | --- | --- | --- | --- | --- | --- | --- | --- |
| CN(C)CCOc1ccc2c(c1)C(=O)/C(=C\c1ncc([N+](=O)[O-])n1C)C2 | 0.857 | 3.39 | 1.57 | 4.8 | 0.37 | 5.14 | 0.701 | 3.25 | 0.489 | 3.11 | 0.295 | 1.31 | 3.7 | 0.923 | 3.21 | 0.917 | 3.19 | 1.43 | 4.55 | – |
| CSc1nc2ccc(C)cc2cc1/C=C1/C=C(c2ccccc2)NC1=O | 2 | 5.89 | 2.63 | 8.46 | 3.54 | 30.7 | 2.85 | 13.4 | 3.16 | 48 | 8.83 | 7.3 | > 100 | 4.83 | > 100 | 94.6 | > 100 | 3.99 | 87.5 | > 100 |
| COC(=O)c1cc(C)[nH]c2c(C)cc3nc4ccccc4c3c12 | 7.1 | 21.4 | 5.73 | 19.5 | 10.2 | 22.8 | 5.85 | 20.7 | 11 | 23.8 | 4.34 | 14 | 28.9 | 13.4 | 26.5 | 16.1 | 30 | 3.87 | 18 | 46.1 |
| CN1CCN(c2nc3cc(F)ccc3n3cccc23)CC1 | – | > 100 | – | > 100 | – | > 100 | – | > 100 | – | > 100 | – | – | 54.1 | – | > 100 | – | 79 | – | > 100 | > 100 |
| C=C(CN1CCN(c2ccc(F)c(Cl)c2)CC1)c1ccc(C(=O)Nc2ccccc2N)cc1 | 2.88 | 13.4 | 18.2 | 97.5 | 3.81 | 24.5 | 2.15 | 11.6 | 4.35 | > 100 | 2.41 | 9.12 | 55.3 | > 100 | > 100 | 13.9 | 47.3 | 2.01 | 5.09 | 14.2 |
| COC(=N)CCCl | – | > 100 | – | > 100 | – | > 100 | – | > 100 | – | > 100 | – | – | > 100 | – | > 100 | – | > 100 | – | > 100 | > 100 |
| COc1ccc2c(c1)[nH]c1c3ccc(OC)cc3oc(=O)c21 | – | > 100 | – | > 100 | – | > 100 | – | > 100 | – | > 100 | – | – | > 100 | – | > 100 | – | > 100 | – | > 100 | > 100 |
| O=C(N/N=C/c1ccc(N(CCCl)CCCl)cc1)c1ccc(C(=O)N/N=C/c2ccc(N(CCCl)CCCl)cc2)cc1 | 2.55 | > 100 | > 100 | > 100 | 3.08 | > 100 | 4.98 | 88.3 | 0.284 | 27.8 | 20.9 | 57.4 | > 100 | 10.5 | > 100 | > 100 | > 100 | > 100 | > 100 | > 100 |
| CC1=C(SCCC(=O)OC(C[Se]C2=C(C)C(=O)c3ccccc3C2=O)C(=O)NC(C)(C)C)C(=O)c2ccccc2C1=O (centres undefined) | 1.57 | 2.91 | 2.52 | 4.1 | 1.11 | 4.59 | 0.793 | 2.13 | 1.55 | 2.88 | 0.774 | 1.87 | 4.14 | 1.43 | 2.74 | 1.76 | 3.2 | 0.701 | 1.98 | 2.59 |
